Reference: patent US20030108512A1, “Modified prostaglandin compounds and analogs thereof, compositions containing the same useful for the treatment of cancer” (priority 2001, published 2003)

Assays:
[1] = tested on: human amelanotic melanoma cell line (LOX); assay: Collagen degradation inhibition assay (fluorescent-labelled Type I collagen matrix seeded with tumor cells); assay type: cell-based; details: n=4, FIGS. 2-4; for IC50: LOX cells on labelled Type I collagen film; for dosage at which collagen degradation activity by LOX cells was inhibited: dosages tested about 10^−6 to 10^3 μM
From the text: The assay for screening antimetastatic agents is comprised of a collagenous matrix comprising collagenous components including but not limited to Type I or Type VI collagen or denatured collagen such as gelatin to form a scaffold-matrix. The scaffold matrix is subsequently coated with blood-borne components such as fibronectin, laminin, and fibrin for inducing adherence of the tumor cells and thereafter, labeled with quench fluorescent dyes. During performance of the assay, tumor cells that are present, adhere, ingest and invade the labeled scaffold-matrix resulting in the release of highly fluorescent peptides. Generally, tumor cells include a specific cell structure typically comprised of tentacles or arms (i.e. invadopodia) which secrete specific digestive enzymes including seprase, dipeptidyl peptidase IV (DPPIV), membrane Type-1 matrix metalloproteinases, and the like, to breakdown the collagen matrix. The fluorescence becomes visible only in the presence of these specific digestive enzymes produced by the tumor cells and increases in proportion to the activity of the digestive enzymes, thus providing a qualitative/quantitative measure of the invasiveness of the tumor cells. Other labeling methods including, but not limited to the use of, biotin, color dyes, and radioactive probes may also be used. As described herein, the assay utilizes a thin coating of collagen labeled with a fluorescent dye probe to form a scaffold collagen matrix, and tumor cells. The scaffold collagen matrix simulates the extracellular environment that is attacked by tumor cells during metastasis. The tumor cells attack the matrix by secreting proteolytic enzymes that break the collagen into peptide fragments. The peptide fragments release the fluorescent dye probe, and fluorescent light is emitted. The observed light intensity of the fluorescence correlates proportionally with the collagen degradation activity of the tumor cells. The tumor cells used in the test samples were generated from a human amelanotic melanoma cell line (LOX). A solution of a Type I collagen was prepared at a concentration of about 3.56 mg/ml. The collagen solution was used to form a coating of a monolayer of Type I collagen on a 96-well microtiter plate. […] Fluorescence readings were made using a microtiter plate fluorescence reader set at 485 nm/538 nm (Ex/Em). […] The collagen degradation activity of the LOX cells was detected through the cleavage and release of fluorescent collagen peptides from the labeled collagen matrix film as described above. A positive fluorescence signal, ΔF indicates the presence of collagen degradation activity. […]

LOX cells = assay: Apoptosis assay (Vybrant Apoptosis Assay Kit #4, YO-PRO); assay type: cell-based, human; details: overnight, n=4, FIGS. 9-11
Method: An apoptosis assay marketed as Vybrant Apoptosis Assay Kit #4 from Molecular Probes, Inc., was obtained for the test.
The LOX cell cultures were incubated overnight.
The apoptosis assay was performed four times (n=4) for each test compound.

SMILES | IC50 ([1]; Homo sapiens) [nM] | dosage at which collagen degradation activity by LOX cells was inhibited [1] | dosages giving a marked increase in the incidence of apoptosis (LOX cells) | IC50 [1] [nM] | dosages causing LOX cells to enter apoptosis (LOX cells)
CCCCCC(O)CC[C@@H]1C2Cc3cccc(OCC(=O)O)c3CC2C[C@H]1O (stereo partly drawn) [Compound V, reference compound] | 10 | about 2.5×10^−3 μM | over 100 μM | – | –
CNC(=O)[C@H](Cc1ccccc1)NC(=O)[C@H](CC(C)C)[C@H](CSc1cccs1)C(=O)NO [MMP inhibitor, BATIMASTAT®, reference compound] | – | over 10^−4 μM | – | 0.2 | over 2 μM
